Measurements published in the supplement of paper PMC5303821, “Major sulfonate transporter Soa1 in Saccharomyces cerevisiae and considerable substrate diversity in its fungal family” (Nature Communications, 2017).

Experiments:
Conditions in all cases: sulfur source concentration 200 µM; S. cerevisiae S288C/BY sul1Δ sul2Δ soa1Δ with transporter ortholog inserted at SOA1 locus; sulfur-free B medium, 4% glucose, pH 6.5, sole sulfur source
[1] = system: Metarhizium robertsii_XP_007822519; assay: lag phase before growth; higher = slower start of growth
[2] = system: Ogataea parapolymorpha_XP_013935289; assay: as above
[3] = system: Saccharomyces cerevisiae_SOA1; assay: as above
[4] = system: Saccharomyces eubayanus_SOA1; assay: as above
[5] = system: Saccharomyces uvarum_SOA1; assay: as above
[6] = system: Saccharomyces uvarum_SOA2; assay: as above
[7] = system: Aspergillus nidulans (IAM 2006)_astA; assay: maximal culture density with compound as sole sulfur source (OD600); higher = better growth
[8] = system: Aspergillus nidulans_XP_661711; assay: as above
[9] = system: Aspergillus nidulans_XP_661733; assay: as above
[10] = system: Metarhizium robertsii_XP_007822519; assay: as above
[11] = system: Ogataea parapolymorpha_XP_013935289; assay: as above
[12] = system: Saccharomyces cerevisiae_SOA1; assay: as above
[13] = system: Saccharomyces uvarum_SOA1; assay: as above
[14] = system: Saccharomyces uvarum_SOA2; assay: as above
[15] = system: Aspergillus nidulans (IAM 2006)_astA; assay: maximal growth rate with compound as sole sulfur source (OD600 per h); higher = better growth / uptake of the sulfur source
[16] = system: Aspergillus nidulans_CBF74694; assay: as above
[17] = system: Aspergillus nidulans_CBF80346; assay: as above
[18] = system: Aspergillus nidulans_XP_660563; assay: as above
[19] = system: Aspergillus nidulans_XP_660670; assay: as above
[20] = system: Aspergillus nidulans_XP_661711; assay: as above
[21] = system: Aspergillus nidulans_XP_661733; assay: as above
[22] = system: Aspergillus nidulans_XP_681611; assay: as above
[23] = system: Fusarium oxysporum_ENH65823; assay: as above
[24] = system: Metarhizium robertsii_XP_007821441; assay: as above
[25] = system: Metarhizium robertsii_XP_007822519; assay: as above
[26] = system: Metarhizium robertsii_XP_007823832; assay: as above
[27] = system: Ogataea parapolymorpha_XP_013932458; assay: as above
[28] = system: Ogataea parapolymorpha_XP_013935289; assay: as above
[29] = system: Ogataea parapolymorpha_XP_013936897; assay: as above
[30] = system: Saccharomyces cerevisiae_SOA1; assay: as above
[31] = system: Saccharomyces eubayanus_SOA1; assay: as above
[32] = system: Saccharomyces eubayanus_SOA2; assay: as above
[33] = system: Saccharomyces uvarum_SOA1; assay: as above
[34] = system: Saccharomyces uvarum_SOA2; assay: as above
soa1 del = assay: as above

Compound	lag phase before growth [1]	lag phase before growth [2]	lag phase before growth [3]	lag phase before growth [4]	lag phase before growth [5]	lag phase before growth [6]	maximal culture density [7]	maximal culture density [8]	maximal culture density [9]	maximal culture density [10]	maximal culture density [11]	maximal culture density [12]	maximal culture density [13]	maximal culture density [14]	maximal growth rate [15]	maximal growth rate [16]	maximal growth rate [17]	maximal growth rate [18]	maximal growth rate [19]	maximal growth rate [20]	maximal growth rate [21]	maximal growth rate [22]	maximal growth rate [23]	maximal growth rate [24]	maximal growth rate [25]	maximal growth rate [26]	maximal growth rate [27]	maximal growth rate [28]	maximal growth rate [29]	maximal growth rate [30]	maximal growth rate [31]	maximal growth rate [32]	maximal growth rate [33]	maximal growth rate [34]	maximal growth rate (soa1 del)
CCS(=O)(=O)O [Ethanesulfonate]	7.36 h	8.69 h	10.3 h	9.96 h	9.26 h	15.6 h	0.477	0.209	0.238	1.6	1.58	1.58	1.59	1.76	0.0175	0.00278	0.00396	0.00579	0.0037	0.00368	0.00379	0.00641	0.00347	0.00304	0.0594	0.0141	0.00424	0.0784	0.00513	0.076	0.0681	0.0754	0.0735	0.081	0.00466
O=S(=O)(O)CO [Hydroxymethane sulfonate]	7.86 h	6.08 h	6.75 h	7.32 h	6.88 h	11.1 h	1.6	0.207	0.267	1.59	1.62	1.61	1.6	1.73	0.0343	0.00325	0.00313	0.00603	0.00358	0.00357	0.00489	0.00603	0.00319	0.0032	0.0756	0.038	0.00402	0.114	0.00499	0.121	0.0972	0.0594	0.109	0.107	0.00406
N[C@@H](CS(=O)(=O)O)C(=O)O [L-cysteic acid]	17.9 h	10.9 h	12.6 h	–	6.98 h	–	1.41	1.16	1.3	1.38	1.51	1.46	1.25	0.234	0.0282	0.003	0.00644	0.00641	0.00837	0.00852	0.0304	0.00678	0.01	0.00544	0.00861	0.028	0.00397	0.035	0.00557	0.037	0.00648	0.00291	0.00754	0.00261	0.00337
CSCC[C@H](N)C(=O)O [Methionine]	4.74 h	4.02 h	5.45 h	3.83 h	3.45 h	4.3 h	1.59	1.6	1.59	1.59	1.55	1.61	1.57	1.68	0.143	0.138	0.139	0.13	0.139	0.139	0.136	0.142	0.144	0.137	0.139	0.138	0.131	0.13	0.123	0.145	0.129	0.127	0.131	0.138	0.141
CCCS(=O)(=O)O [Propanesulfonate]	21.1 h	10.8 h	15.7 h	11.9 h	11.1 h	19 h	0.486	0.232	0.249	1.88	1.59	1.6	1.56	1.69	0.0176	0.00267	0.00331	0.00627	0.00401	0.00399	0.00555	0.00692	0.00365	0.0026	0.0162	0.0143	0.0042	0.0825	0.00486	0.0797	0.0691	0.0792	0.0748	0.0773	0.00415
